Ends that are not written are not given here.
How the values were obtained:
[1] = test system: five gram-negative bacteria and three gram-positive bacteria; assay: Minimum inhibitory concentration across all tested bacteria; type: cell-based; settings: all eight tested bacteria (five gram-negative, three gram-positive); liquid growth inhibition; no antibacterial activity at highest concentration given as >
From the text: (§1) The mature peptides of LcHamp1 (HAMP1: […]), LcHamp2-1/4 (HAMP2-1/4: […]), LcHamp2-2 (HAMP2-2: […]), LcHamp2-3 (HAMP2-3: GSPARCRFCCR CCPGMRGCGICCRF), and LcHamp2-5 (HAMP2-5: […]) were synthesized, oxidized, and purified by GL Biochem (Shanghai) Ltd. (Shanghai, China). Purity of the synthesized peptides was >/95%. The synthetic peptides were reconstituted in phosphate buffered saline (PBS; pH 7.4). We tested the antimicrobial activity of synthesized peptides against the five gram-negative bacteria A. hydrophila, E. coli, V. alginolyticus, V. harvryi, and V. parahemolyticus, and three gram-positive bacteria B. subtilis, B. amyloliquefaciens, and S. aureus using liquid growth inhibition assays. The minimum inhibitory concentration was considered the lowest concentration that induced a 100% decrease in the optical density of the bacterial suspension.

[2] = test system: Singapore grouper iridovirus (SGIV); assay: Antiviral activity in SGIV-infected grouper spleen cells; type: cell-based; settings: grouper spleen cells pretreated 1 h with 50 µg/mL peptide, SGIV at MOI 2; cytopathic effect, ORF072 and ORF086 expression (real-time PCR), viral titer TCID50; three independent experiments
Protocol: The antiviral activity of synthetic L. crocea hepcidins was tested in grouper spleen cells, in which a viral infection model has already been established. Grouper spleen cells were seeded onto 6-well plates (Thermo Fisher Scientific, USA) for 18 h. The grouper spleen cells were pretreated for 1 h with each synthetic Hamp peptide at a final concentration of 50 µg/mL or with PBS (as a control). After pretreatment, the cells were infected with SGIV at a multiplicity of infection of 2. At 24 h post infection, cytopathic effects in the grouper spleen cells were observed microscopically (Leica Microsystems, Germany). The expression levels of two genes encoding SGIV envelope proteins (ORF072 and ORF086) were measured with real-time PCR. E. coioides β-actin (Ecβ-actin) was amplified as an internal control. The expression level of ORF072 or ORF086 was normalized to Ecβ-actin using the 2^–ΔΔCT method. Moreover, supernatants and infected cell lysates were collected to determine the viral titer 50% tissue culture infectious dose[50]. All data were obtained from three independent experiments with each performed in triplicate.

[3] = test system: macrophages from L. crocea head kidney; assay: Intracellular iron in macrophages; type: cell-based, Larimichthys crocea; settings: 100 ng/mL peptide, 2 h, ICP-MS, versus PBS control, P < 0.05, three independent experiments
Protocol: Six groups of macrophages (1 × 10^6 cells per well) were seeded onto 6-well plates for 18 h. To each of five of the groups, we added one synthetic hepcidin peptide from L. crocea, with a final concentration of 100 ng/mL. The sixth group (control) was treated with PBS. After 2 h incubation, we measured the intracellular iron concentration of macrophages with Inductively Coupled Plasma Mass Spectrometry. The fold change was expressed as the intracellular iron concentration in macrophages treated with synthetic hepcidin peptides versus the intracellular iron concentration in the control macrophages.

[4] = test system: Aeromonas hydrophila; assay: Minimum inhibitory concentration, liquid growth inhibition assay; type: cell-based; settings: gram-negative, lowest concentration giving 100% decrease in optical density, peptide in PBS pH 7.4
From the text: as §1

[5] = test system: Bacillus amyloliquefaciens; assay: as above; type: cell-based; settings: gram-positive, lowest concentration giving 100% decrease in optical density, peptide in PBS pH 7.4
From the text: as §1

[6] = test system: Bacillus subtilis; assay: as above; type: cell-based; settings: gram-positive, lowest concentration giving 100% decrease in optical density, peptide in PBS pH 7.4
From the text: as §1

[7] = test system: Escherichia coli; assay: as above; type: cell-based; settings: gram-negative, lowest concentration giving 100% decrease in optical density, peptide in PBS pH 7.4
From the text: as §1

[8] = test system: Staphylococcus aureus; assay: as above; type: cell-based; settings: gram-positive, lowest concentration giving 100% decrease in optical density, peptide in PBS pH 7.4
From the text: as §1

[9] = test system: Vibrio alginolyticus; assay: as above; type: cell-based; settings: gram-negative, lowest concentration giving 100% decrease in optical density, peptide in PBS pH 7.4
From the text: as §1

[10] = test system: Vibrio harveyi; assay: as above; type: cell-based; settings: gram-negative, lowest concentration giving 100% decrease in optical density, peptide in PBS pH 7.4
From the text: as §1

[11] = test system: Vibrio parahaemloyticus; assay: as above; type: cell-based; settings: gram-negative, lowest concentration giving 100% decrease in optical density, peptide in PBS pH 7.4
From the text: as §1

Sequence | minimum inhibitory concentrations for the bacterial species tested [1] | antiviral activity against SGIV infection [2] | intracellular iron content of macrophages (regulatory effect on iron metabolism) [3] | MIC [4] | MIC [5] | MIC [6] | MIC [7] | MIC [8] | MIC [9] | MIC [10] | MIC [11]
SSAAKCQFCCRCCPRMSGCGVCCRF (disulfide (positions not given here)) [HAMP2-2, synthetic, oxidized mature peptide of Larimichthys crocea hepcidin LcHamp2-2] | > 300 µM | no identifiable antiviral activity | no antibacterial activity, antiviral activity or regulatory effect on iron metabolism |  |  |  |  |  |  |  | 
SSAAKCQFCCRCCPDMIGCGICCRF (disulfide (positions not given here)) [HAMP2-1/4] | > 300 µM | exhibited antiviral activity | increases in iron content |  |  |  |  |  |  |  | 
QSHISLCRYCCNCCKNKGCGYCCRF (disulfide (positions not given here)) [HAMP1, synthetic, oxidized mature peptide of Larimichthys crocea hepcidin LcHamp1] | > 300 µM | no identifiable antiviral activity | increases in iron content |  |  |  |  |  |  |  | 
GSPARCRFCCR CCPGMRGCGICCRF (disulfide) (disulfide (positions not given here)) [HAMP2-3, synthetic, oxidized mature peptide of Larimichthys crocea hepcidin LcHamp2-3] |  | exhibited antiviral activity |  | 16 µM | 8 µM | 4 µM | 16 µM | 4 µM | 16 µM | 16 µM | 16 µM
GSPARCRFCCRCCPRMRGCGICCRF (disulfide) (disulfide (positions not given here)) [HAMP2-5, synthetic, oxidized mature peptide of Larimichthys crocea hepcidin LcHamp2-5] |  | no identifiable antiviral activity |  | 1 µM | 1 µM | 0.25 µM | 0.5 µM | 0.5 µM | 0.25 µM | 0.5 µM | 0.5 µM
